The text below walks through data of PubChem BioAssay (NCI).

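Grown in 96-well plates, cells were treated for 48 hours with each compound at five concentrations. Insufficient inhibition: endpoint recorded as highest concentration tested. At the TGI there is no net growth.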

Holding throughout (assay): growth of human tumour cells (NCI), 48 h
The subject of test [1] is ACHN renal.
Test [2] relates to HOP-62 NSCLC.
For test [3], the system named is HT29 colon.
The test system of test [4] is MDA-N.
The test system of test [5] is MOLT-4 leukemia.
In test [6] the test system is NCI-H226 lung.
Test [7] deals with NCI-H23 lung.
For test [8], the system named is NCI/ADR-RES ovarian.
The subject of test [9] is OVCAR-3 ovarian.
In test [10] the test system is OVCAR-4 ovarian.
Test [11] deals with PC-3 prostate.
For test [12], the system named is RPMI-8226 leukemia.
Test [13] relates to SF-539 CNS.
For test [14], the system named is SK-OV-3 ovarian.
Test [15] has as its system SW-620 colon.
Test [16] relates to UACC-62 melanoma.
For test [17], the system named is UO-31 renal.
For test [18], the system named is NCI-H522 lung.

On to `CCCC(=O)Oc1ccc2c(C)cc(=O)oc2c1OC(=O)CCC`, for which the TGI in [1], in test [2], in [3], in test [4], in test [5] and in [6] was above 100 µM in each case. Besides, the TGI in test [7], in test [8], in test [9], in test [10], in test [11] and in [12] was above 100 µM each time. Also, the TGI in test [13], in [14], in test [15], in test [16] and in test [17] was above 100 µM in each case.

Take `COc1cc2ccc1OCc1cccc(n1)COc1ccc(cc1OC)C=Nc1ccc(cc1)-c1ccc(cc1)N=C2`: the TGI in [1], in test [2], in [3], in test [4], in test [5] and in test [6] was above 100 µM each time. Besides, the TGI in [7], in test [18], in test [8], in [9], in test [10] and in test [11] was above 100 µM each time. In addition, the TGI in test [13], in test [14], in test [15], in test [16] and in [17] was above 100 µM in each case.

`CCSC1=N/C(=C/c2ccccc2O)C(=O)N1`: the TGI in test [1], in test [2], in test [3], in test [4], in test [5] and in test [6] was above 100 µM throughout. For the same compound, the TGI in test [7], in test [18], in test [8], in test [9], in [11] and in test [12] was above 100 µM throughout. Besides, the TGI in test [13] is 91.8 µM; in [14] it was above 100 µM; in test [15], above 100 µM; in [16], above 100 µM; in test [17], above 100 µM.

With `CC(=O)Oc1cc(C)c(OC(C)=O)c2c1[C@H]1CC[C@]3(C)[C@@H](OC(C)=O)CC[C@H]3[C@@H]1CC2`, the TGI in test [1] stood at 27.7 µM; in test [2] it was 34.4 µM; in test [3] it was 46.2 µM; in test [4], 28.2 µM; in test [5], 33.7 µM; in test [7], 34.8 µM. For the same compound, the TGI in test [18] was 32.6 µM; in test [8], 41.2 µM; in test [9], 32.1 µM; in test [11], 26.9 µM; in test [12] it was 59.2 µM; in test [13] it was 35.4 µM. The TGI stood at 34.3 µM in test [15], 32.8 µM in test [16] and 28.7 µM in [17].

`CC(C)(CC#N)c1cc(CC(C)(C)c2cc(CC(C)(C)c3cc(C(C)(C)C4(C)OCCO4)no3)no2)no1`: the TGI in test [1], in [2], in test [3], in [4], in test [5] and in [6] was above 100 µM in each case. Moreover, the TGI in test [7] is above 100 µM; in test [18] it was above 100 µM; in test [8] it was above 100 µM; in test [9], above 100 µM; in test [10], 91 µM; in test [11] it was above 100 µM. The TGI in [12], in [14], in test [15], in test [16] and in [17] was above 100 µM throughout.

For the compound `CCOC(=O)C1=COC(C)(c2ccccc2)CC1=O` (stereo unspecified), the TGI in test [1] is above 100 µM; in test [2], above 100 µM; in test [3], above 100 µM; in test [4] it was above 100 µM; in [5], 98 µM; in test [7], above 100 µM. Also, the TGI in test [18], in test [8], in test [9], in test [10], in test [11] and in [12] was above 100 µM each time. Also, the TGI in [13], in test [14], in test [15], in [16] and in test [17] was above 100 µM each time.

Take `COC(=O)c1nc(-c2nc(CCNC(=O)OC(C)(C)C)sc2Cl)sc1Cl`: the TGI in test [1], in test [2], in [3], in test [4], in [5] and in test [6] was above 100 µM each time. Further, the TGI in [7], in [8], in [9], in test [11], in test [12] and in test [13] was above 100 µM in each case. Besides, the TGI in [14], in test [15], in test [16] and in test [17] was above 100 µM in each case.

For `Nc1nc(NCC2(CO)CCC2)cc(=O)[nH]1`, the TGI in test [2], in [3], in test [4], in [5], in test [6] and in test [7] was above 100 µM in each case. For the same compound, the TGI in test [18], in [8], in test [9], in test [10], in test [11] and in test [12] was above 100 µM in each case. Moreover, the TGI in [14], in test [15], in test [16] and in test [17] was above 100 µM each time.

As for `COC(=O)c1ccccc1C1CN=NC12Cc1cc(C)c(C)cc1C2=O` (stereo unspecified), the TGI in test [1] was above 100 µM; in [2], above 100 µM; in test [3], above 100 µM; in [4] it was above 100 µM; in test [5], 89.8 µM; in test [6], above 100 µM. Besides, the TGI in test [7] is above 100 µM; in [18] it was 67.3 µM; in test [8], above 100 µM; in test [9], above 100 µM; in test [10], above 100 µM; in test [11] it was above 100 µM. Further, the TGI in test [13], in test [14], in [15], in test [16] and in test [17] was above 100 µM in each case.

With `Nc1cc(N2CCOCC2)nc(=O)n1-c1ccc(Cl)cc1`, the TGI in test [1], in [2], in test [3], in test [4], in [5] and in test [6] was above 100 µM in each case. Further, the TGI in test [7], in test [8], in [9], in test [11], in test [12] and in [13] was above 100 µM each time. The TGI in test [14], in test [15], in test [16] and in test [17] was above 100 µM throughout.

As for `CCCCCCCCCCCCCCCC(=O)OC(COC(C)=O)CO[P+](=O)O` (stereo unspecified), the TGI in test [1] was 92.8 µM; in [4] it was above 100 µM; in test [5], 80.7 µM; in test [18], 36.2 µM; in test [8], 80.8 µM; in test [9], above 100 µM. In addition, the TGI was above 100 µM in test [10]; above 100 µM in test [11]; above 100 µM in test [12]; 53.3 µM in test [13]; above 100 µM in test [15]; above 100 µM in test [16]. Moreover, in [17], the TGI came out at 97.1 µM.

In the case of `CC1(C)N=C(C(=O)c2ccccc2)N(O)C1(O)c1ccccc1` (stereo unspecified), the TGI in [1], in test [2], in test [3], in test [4], in test [5] and in test [6] was above 100 µM in each case. Further, the TGI in test [7], in test [8], in [9], in test [10], in test [11] and in [12] was above 100 µM each time. For the same compound, the TGI in [13], in test [14], in test [15], in test [16] and in [17] was above 100 µM in each case.

As for `COc1ccc([C@]23CCN(S(=O)(=O)c4ccc(C)cc4)[C@H]2[C@H](CO)C2(CC3)OCC(C)(C)CO2)cc1OC`, the TGI in test [1], in [2], in test [3], in test [4], in test [5] and in test [6] was above 100 µM throughout. In addition, the TGI in test [7], in test [18], in test [8], in test [9], in test [10] and in test [11] was above 100 µM in each case. For the same compound, the TGI in test [12], in test [14], in test [15], in test [16] and in test [17] was above 100 µM throughout.

In the case of `CC(C)c1cccc(C(=O)NCCN(C)C)c1[N+](=O)[O-]`, the TGI in test [1], in [2], in [3], in test [4], in [5] and in test [6] was above 100 µM each time. Also, the TGI in test [7], in test [18], in [8], in test [9], in [11] and in test [13] was above 100 µM in each case. The TGI in test [14], in test [15], in test [16] and in [17] was above 100 µM in each case.

In the case of `O=C1/C(=C/c2ccccc2)CCc2ccccc21`, the TGI in test [1] stood at 32.4 µM; in test [2], 34.4 µM; in test [3], 32.7 µM; in test [4] it was 32.2 µM; in [5], 40.8 µM; in test [6], 35 µM. Besides, the TGI came to 45.8 µM in test [7]; 83.2 µM in test [8]; 30.2 µM in [9]; 28 µM in [10]; 38.6 µM in test [11]; 9.42 µM in [12]. Further, the TGI in test [13] stood at 31.3 µM; in [14], 67.5 µM; in test [15], 34.2 µM; in test [16] it was 36.7 µM; in test [17], 27.8 µM.

Take `Cn1c(=O)cc(NCCc2ccccc2)[nH]c1=O`: the TGI in test [1] is above 100 µM; in test [2] it was above 100 µM; in test [3] it was 78.1 µM; in test [4], 20.5 µM; in test [5] it was above 100 µM; in [6], above 100 µM. Also, the TGI in [7] is above 100 µM; in [8], 98 µM; in test [9], 36.6 µM; in test [10] it was above 100 µM; in test [11] it was above 100 µM; in test [12], above 100 µM. Besides, the TGI in test [13], in [14], in test [15], in [16] and in [17] was above 100 µM each time.

With `CC(=O)OC1CC[C@@]2(C)C(C1)CC(OC(C)=O)[C@@H]1C2CC(OC(C)=O)[C@]2(C)C(C(C)CC=C(c3ccc(Cl)cc3)c3ccc(Cl)cc3)CCC12` (stereo partly specified), the TGI in test [1], in test [2], in test [3], in [4], in test [5] and in [18] was above 100 µM in each case. For the same compound, the TGI is above 100 µM in [8]; above 100 µM in [10]; above 100 µM in [11]; 56.8 µM in test [12]; above 100 µM in test [13]; above 100 µM in test [14]. The TGI in test [15] and in test [17] was above 100 µM in each case.
